From US20260022094A1, “Compounds for the Treatment of Neurodegenerative Diseases” (Celgene Corporation, priority 2022, published 2026)

Molecular target: T1, S1P5 receptors (Homo sapiens, UniProt Q9H228)
T1 construct: expressed in transfected cells; host or cells: CHO cells (membranes)
Assay: [35S]-GTPγS binding assay on CHO-S1P5 membranes (S1P5 agonism)
Type: biochemical
Conditions: membranes of CHO cells expressing recombinant S1P5; measure of S1P5 agonism
Procedure: CHO cells expressing recombinant S1P5 receptors were cultured in 500 cm^2 culture trays and, once confluent, rinsed and detached with cell-lifting buffer (10 mM HEPES, 154 mM NaCl, 6.85 mM EDTA, pH 7.4). Cells were then pelleted by centrifugation, resuspended, and homogenized in membrane preparation buffer (10 mM HEPES and 10 mM EDTA, pH 7.4) using a Polytron PT 1200E homogenizer (Kinematica, Luzern, Switzerland). Cellular proteins were pelleted by centrifugation at 48,000×g at 4° C. for 30 minutes. The resulting supernatant was discarded, and the pellet was re-suspended again in membrane preparation buffer, homogenized for a second time, and then centrifuged again as described above. The final cellular protein pellet was suspended in ice cold resuspension buffer (10 mM HEPES and 0.1 mM EDTA, pH 7.4), divided into aliquots, and stored at −80° C. until use.
Functional binding assays for [^35S]-GTPγS were performed in 96-well non-binding surface plates with a final volume of 200 μL. The test compounds were serially diluted in DMSO and added to assay plates using a Tecan D300E digital printer with a total volume of 0.4 μL. The control sphingosine-1-phosphate (SIP) was prepared separately by preparing a 400 µM stock solution from a 100 nmol pellet of S1P in 10 mM Na2CO3 with 2% β-cyclodextrin. The serial dilution of S1P was done using complete assay buffer (20 mM HEPES, 10 mM MgCl2, 100 mM NaCl, 1 mM EDTA, 0.1% fatty acid free bovine serum albumin (BSA), and 30 μg/mL saponin, pH 7.4) and transferred to wells already containing 0.4 μL DMSO. All the wells were then loaded to a total volume of 40 μL of complete assay buffer, except the non-specific binding (NSB) wells. For NSB wells, 40 μL/well of 50 μM GTPγS (Sigma Aldrich, cat #G8634, St. Louis, MO) was added to wells containing 0.4 μL of DMSO. The assay was started by the addition of 120 μL/well of CHO-SIP receptor membrane solution containing 40 μg/mL of membrane protein, 16.67 μM guanosine diphosphate (GDP; Sigma Aldrich, cat #G7127, St. Louis, MO), and 2.5 mg/mL of WGA PVT SPA beads in complete buffer. Assay plates were then sealed and incubated at room temperature with gentle agitation for 30 minutes. Next, 40 μL/well of 1 nM of [^35S]-GTPγS (PerkinElmer, cat #NEG030X^250UC, Waltham, MA) in basic assay buffer (20 mM HEPES, 10 mM MgCl2, 100 mM NaCl, and 1 mM EDTA, pH7.4) was added to the assay plates to yield a final concentration of […] and the plates were further incubated for 40 minutes at room temperature with gentle agitation. The assay was terminated by centrifugation of the plates at 1000 rpm for 3 minutes using an Eppendorf 5810R centrifuge (Eppendorf, Hamburg, Germany) and G protein bound radioactivity was quantitated using a MicroBeta2 microplate scintillation counter (PerkinElmer, Waltham, MA). As G protein bound radioactivity directly correlates to receptor activation and coupling to the G protein, this assay is a measure of S1P5 agonism.

T1 sequence (Q9H228 whole entry): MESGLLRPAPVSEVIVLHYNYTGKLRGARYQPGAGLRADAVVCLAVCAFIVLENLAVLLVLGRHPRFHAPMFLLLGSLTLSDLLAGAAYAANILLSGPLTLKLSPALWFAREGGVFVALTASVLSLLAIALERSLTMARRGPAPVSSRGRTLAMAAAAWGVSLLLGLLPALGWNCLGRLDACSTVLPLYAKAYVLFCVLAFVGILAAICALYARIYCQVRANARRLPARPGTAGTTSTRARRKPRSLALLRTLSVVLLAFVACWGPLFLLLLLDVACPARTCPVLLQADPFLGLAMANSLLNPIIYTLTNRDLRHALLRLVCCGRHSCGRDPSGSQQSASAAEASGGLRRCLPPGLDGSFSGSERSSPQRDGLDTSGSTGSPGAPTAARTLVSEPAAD

| Structure (SMILES) | EC50 [nM] |
| --- | --- |
| Cc1c(CCc2c(Cl)cccc2Cl)ccc2c1CCC2N1CC(C)(O)C1 (single isomer, unassigned) [Compound 18a, 1-[5-[2-(2,6-dichlorophenyl)ethyl]-4-methyl-indan-1-yl]-3-methyl-azetidin-3-ol] | 1 to 10 |
| CC1(O)CN(C2CCc3cc(-c4ccc(C5CC5)c(Cl)c4)ccc32)C1 (single isomer, unassigned) [Compound 5b, 1-[5-(3-chloro-4-cyclopropyl-phenyl)indan-1-yl]-3-methyl-azetidin-3-ol] | 10 to 100 |
| CC1(O)CCN(C2CCc3cc(C4CN(c5c(Cl)cccc5Cl)C4)ccc32)C1 (stereo not shown) [Compound 9, 1-(5-(1-(2,6-dichlorophenyl)azetidin-3-yl)-2,3-dihydro-1H-inden-1-yl)-3-methylpyrrolidin-3-ol] | 100 to 1000 |
| Cc1cc(-c2ccc(C3CC3)c(Cl)c2)cc2c1C(N1CCC(C)(O)CC1)CC2 (stereo not shown) [Compound 11, 1-(5-(3-chloro-4-cyclopropylphenyl)-7-methyl-2,3-dihydro-1H-inden-1-yl)-4-methylpiperidin-4-ol] | 1000 to 10000 |
| Cc1c(C#Cc2cccc(F)c2)ccc2c1CCC2N1CC(C)(O)C1 (single isomer, unassigned) [Compound 17b, 1-[5-[2-(3-fluorophenyl)ethynyl]-4-methyl-indan-1-yl]-3-methyl-azetidin-3-ol] | 10 to 100 |
| Cc1c(-c2ccc(C3CC3)c(Cl)c2)ccc2c1CCC2N1CC(C)(O)C1 (single isomer, unassigned) [Compound 16a, 1-[5-(3-chloro-4-cyclopropyl-phenyl)-4-methyl-indan-1-yl]-3-methyl-azetidin-3-ol] | 1 to 10 |
| Cc1c(-c2ccc(C3CC3)c(Cl)c2)ccc2c1CCC2N1CC(C)(O)C1 (single isomer, unassigned) [Compound 16b, 1-[5-(3-chloro-4-cyclopropyl-phenyl)-4-methyl-indan-1-yl]-3-methyl-azetidin-3-ol] | 1 to 10 |
| Cc1c(C#Cc2cccc(F)c2)ccc2c1CCC2N1CC(C)(O)C1 (single isomer, unassigned) [Compound 17a, 1-[5-[2-(3-fluorophenyl)ethynyl]-4-methyl-indan-1-yl]-3-methyl-azetidin-3-ol] | 10 to 100 |
| CC1(O)CN(C2CCc3cc(C#Cc4cccc(F)c4)ccc32)C1 (single isomer, unassigned) [Compound 2a, 1-[5-[2-(3-fluorophenyl)ethynyl]indan-1-yl]-3-methyl-azetidin-3-ol] | 100 to 1000 |
| CC1(O)CN(C2CCc3cc(OCc4c(Cl)cccc4Cl)ccc32)C1 (single isomer, unassigned) [Compound 3b, 1-(5-((2,6-dichlorobenzyl)oxy)-2,3-dihydro-1H-inden-1-yl)-3-methylazetidin-3-ol] | 10 to 100 |
| CC1(O)CN(C2CCc3cc(-c4ccc(C5CC5)c(Cl)c4)ccc32)C1 (single isomer, unassigned) [Compound 5a, 1-[5-(3-chloro-4-cyclopropyl-phenyl)indan-1-yl]-3-methyl-azetidin-3-ol] | 10 to 100 |
| CC1(O)CN(C2CCc3cc(OCc4c(Cl)cccc4Cl)ccc32)C1 (single isomer, unassigned) [Compound 3a, 1-(5-((2,6-dichlorobenzyl)oxy)-2,3-dihydro-1H-inden-1-yl)-3-methylazetidin-3-ol] | 1 to 10 |

Next, values leading:

| EC50 [nM] | Structure (SMILES) |
| --- | --- |
| 10 to 100 | Cc1c(OCc2c(Cl)cccc2Cl)ccc2c1CCC2NCC(C)(C)O (single isomer, unassigned) [Compound 20a, 1-((5-((2,6-dichlorobenzyl)oxy)-4-methyl-2,3-dihydro-1H-inden-1-yl)amino)-2-methylpropan-2-ol] |
| 100 to 1000 | Cc1c(OCc2c(Cl)cccc2Cl)ccc2c1CCC2NCC(C)(C)O (single isomer, unassigned) [Compound 20b, 1-((5-((2,6-dichlorobenzyl)oxy)-4-methyl-2,3-dihydro-1H-inden-1-yl)amino)-2-methylpropan-2-ol] |
| 10 to 100 | Cc1c(-c2ccc(C3CC3)c(Cl)c2)cc2c(c1C)C(N1CC(C)(O)C1)CC2 (single isomer, unassigned) [Compound 27b, 1-(5-(3-chloro-4-cyclopropylphenyl)-6,7-dimethyl-2,3-dihydro-1H-inden-1-yl)-3-methylazetidin-3-ol] |
| 10 to 100 | Cc1cc(C2CN(c3c(Cl)cccc3Cl)C2)c(C)cc1CN1CC(C)(O)C1 [Compound 56, 1-(4-(1-(2,6-dichlorophenyl)azetidin-3-yl)-2,5-dimethylbenzyl)-3-methylazetidin-3-ol] |
| 1 to 10 | Cc1cc2c(c(C)c1-c1ccc(C3CC3)c(Cl)c1)CCC2N1CC(C)(O)C1 (single isomer, unassigned) [Compound 25a, 1-(5-(3-chloro-4-cyclopropylphenyl)-4,6-dimethyl-2,3-dihydro-1H-inden-1-yl)-3-methylazetidin-3-ol] |
| 10 to 100 | CC1(O)CN(Cc2ccc(C3CN(c4c(Cl)cccc4Cl)C3)cc2)C1 [Compound 31, 1-(4-(1-(2,6-dichlorophenyl)azetidin-3-yl)benzyl)-3-methylazetidin-3-ol] |
| 10 to 100 | CC1(O)CN(Cc2ccc(C3CN(c4c(Cl)cccc4Cl)C3)cc2C2CC2)C1 [Compound 50, 1-(2-cyclopropyl-4-(1-(2,6-dichlorophenyl)azetidin-3-yl)benzyl)-3-methylazetidin-3-ol] |
| 100 to 1000 | Cc1cc(C2CN(c3ccc(C4CC4)c(Cl)c3)C2)cc(C)c1CN1CC(C)(O)C1 [Compound 46, 1-(4-(1-(3-chloro-4-cyclopropylphenyl)azetidin-3-yl)-2,6-dimethylbenzyl)-3-methylazetidin-3-ol] |
| 1 to 10 | Cc1cc(N2CC(c3c(Cl)cccc3Cl)C2)cc(C)c1CN1CC(C)(O)C1 [Compound 37, 1-(4-(3-(2,6-dichlorophenyl)azetidin-1-yl)-2,6-dimethylbenzyl)-3-methylazetidin-3-ol] |
| 1 to 10 | Cc1cc2c(cc1-c1ccc(C3CC3)c(Cl)c1)CCC2N1CC(C)(O)C1 (single isomer, unassigned) [Compound 21b, 1-[5-(3-chloro-4-cyclopropyl-phenyl)-6-methyl-indan-1-yl]-3-methyl-azetidin-3-ol] |
| 100 to 1000 | CC1(O)CN(Cc2ccc(N3CC(c4c(Cl)cccc4Cl)C3)cc2)C1 [Compound 33, 1-(4-(3-(2,6-dichlorophenyl)azetidin-1-yl)benzyl)-3-methylazetidin-3-ol] |
| 10 to 100 | Cc1cc2c(cc1CCc1c(Cl)cccc1Cl)CCC2N1CC(C)(O)C1 (single isomer, unassigned) [Compound 23b, 1-[5-[2-(2,6-dichlorophenyl)ethyl]-6-methyl-indan-1-yl]-3-methyl-azetidin-3-ol] |
| 1000 to 10000 | CC1(O)CCN(Cc2ccc(C3CN(c4c(Cl)cccc4Cl)C3)cc2)CC1 [Compound 30, 1-(4-(1-(2,6-dichlorophenyl)azetidin-3-yl)benzyl)-4-methylpiperidin-4-ol] |
| 1 to 10 | Cc1c(OCc2c(Cl)cccc2Cl)ccc2c1CCC2N1CC(C)(O)C1 (single isomer, unassigned) [Compound 19b, 1-[5-[(2,6-dichlorophenyl)methoxy]-4-methyl-indan-1-yl]-3-methyl-azetidin-3-ol] |
| 10 to 100 | CC1(O)CN(Cc2ccc(N3CC(c4c(Cl)cccc4Cl)C3)cc2F)C1 [Compound 65, 1-(4-(3-(2,6-dichlorophenyl)azetidin-1-yl)-2-fluorobenzyl)-3-methylazetidin-3-ol] |
| 1 to 10 | Cc1c(CCc2c(Cl)cccc2Cl)ccc2c1CCC2N1CC(C)(O)C1 (single isomer, unassigned) [Compound 18b, 1-[5-[2-(2,6-dichlorophenyl)ethyl]-4-methyl-indan-1-yl]-3-methyl-azetidin-3-ol] |
